According to patent US12077503B2, “Substituted cyclic amides and their use as herbicides” (FMC CORPORATION, priority 2015, dated 2024):

Legend:
Format in all cases: in vivo
[1] = tested on: barnyardgrass (Echinochloa crus-galli); test: Test G Post-Emergence Protocol; conditions: Echinochloa crus-galli, post-emergence, 312 h; for pest or weed control at 15.625 g/ha: 15.625 g ai/ha, evaluated after 13 days (100=total damage to plant; 0=no damage to plant), read-out: Barnyardgrass damage rating; for pest or weed control at 62.5 g/ha: 62.5 g ai/ha, read-out: Barnyardgrass damage rating (100=total damage to plant; 0=no damage to plant); for pest or weed control at 62.5 g/ha / pest or weed control at 250 g/ha: evaluated after 13 days; for pest or weed control at 250 g/ha: 250 g ai/ha, read-out: damage to plant, Barnyardgrass (100=total damage to plant; 0=no damage to plant)
Procedure, shortened: (§1)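 Foliar application was made 8 days after sowing, using an aqueous spray of the active in acetone/water (50:50) with 0.5% Tween 20, at doses of 15.625, 62.5 or 250 g/ha. Injury was assessed 13 days later, where 100 meant the plant was fully damaged.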

corn (Zea mays) [2] = test: Test G Post-Emergence Protocol; conditions: Zea mays, post-emergence, 312 h; for plant injury at 15.625 g/ha: 15.625 g ai/ha, evaluated after 13 days (100=total damage to plant; 0=no damage to plant), read-out: Corn damage rating; for plant injury at 62.5 g/ha: 62.5 g ai/ha, read-out: Corn damage rating (100=total damage to plant; 0=no damage to plant); for plant injury at 62.5 g/ha / plant injury at 250 g/ha: evaluated after 13 days; for plant injury at 250 g/ha: 250 g ai/ha, read-out: damage to plant, Corn (100=total damage to plant; 0=no damage to plant)
Procedure, shortened: as §1

[3] = tested on: giant foxtail (Setaria faberi); test: Test G Post-Emergence Protocol; conditions: Setaria faberi, post-emergence, 312 h; for pest or weed control at 15.625 g/ha: 15.625 g ai/ha, evaluated after 13 days (100=total damage to plant; 0=no damage to plant), read-out: Foxtail, Giant damage rating; for pest or weed control at 62.5 g/ha: 62.5 g ai/ha, read-out: Foxtail, Giant damage rating (100=total damage to plant; 0=no damage to plant); for pest or weed control at 62.5 g/ha / pest or weed control at 250 g/ha: evaluated after 13 days; for pest or weed control at 250 g/ha: 250 g ai/ha, read-out: damage to plant, Foxtail, Giant (100=total damage to plant; 0=no damage to plant)
Procedure, shortened: as §1

[4] = tested on: ivy-leaved morning glory (Ipomoea hederacea); test: Test G Post-Emergence Protocol; conditions: Ipomoea, post-emergence, 312 h; for pest or weed control at 15.625 g/ha: 15.625 g ai/ha, evaluated after 13 days (100=total damage to plant; 0=no damage to plant), read-out: Morningglory, Ivy-leaved damage rating; for pest or weed control at 62.5 g/ha: 62.5 g ai/ha, read-out: Morningglory, Ivy-leaved damage rating (100=total damage to plant; 0=no damage to plant); for pest or weed control at 62.5 g/ha / pest or weed control at 250 g/ha: evaluated after 13 days; for pest or weed control at 250 g/ha: 250 g ai/ha, read-out: damage to plant, Morningglory, Ivy-leaved (100=total damage to plant; 0=no damage to plant)
Procedure, shortened: as §1

[5] = tested on: redroot pigweed (Amaranthus retroflexus); test: Test G Post-Emergence Protocol; conditions: Amaranthus retroflexus, post-emergence, 312 h; for pest or weed control at 15.625 g/ha: 15.625 g ai/ha, evaluated after 13 days (100=total damage to plant; 0=no damage to plant), read-out: Pigweed, Redroot damage rating; for pest or weed control at 62.5 g/ha: 62.5 g ai/ha, read-out: Pigweed, Redroot damage rating (100=total damage to plant; 0=no damage to plant); for pest or weed control at 62.5 g/ha / pest or weed control at 250 g/ha: evaluated after 13 days; for pest or weed control at 250 g/ha: 250 g ai/ha, read-out: damage to plant, Pigweed, Redroot (100=total damage to plant; 0=no damage to plant)
Procedure, shortened: as §1

[6] = tested on: velvetleaf (Abutilon theophrasti); test: Test G Post-Emergence Protocol; conditions: Abutilon theophrasti, post-emergence, 312 h; for pest or weed control at 15.625 g/ha: 15.625 g ai/ha, evaluated after 13 days (100=total damage to plant; 0=no damage to plant), read-out: Velvetleaf damage rating; for pest or weed control at 62.5 g/ha: 62.5 g ai/ha, read-out: Velvetleaf damage rating (100=total damage to plant; 0=no damage to plant); for pest or weed control at 62.5 g/ha / pest or weed control at 250 g/ha: evaluated after 13 days; for pest or weed control at 250 g/ha: 250 g ai/ha, read-out: damage to plant, Velvetleaf (100=total damage to plant; 0=no damage to plant)
Procedure, shortened: as §1

[7] = tested on: barnyardgrass (Echinochloa crus-galli); test: Test G Pre-Emergence Protocol; conditions: Echinochloa crus-galli, pre-emergence, 312 h, evaluated after 13 days; for pest or weed control at 15.625 g/ha: 15.625 g ai/ha, read-out: Barnyard grass damage rating (100=total damage to plant; 0=no damage to plant); for pest or weed control at 62.5 g/ha: 62.5 g ai/ha, 100=total damage to plant, 0=no damage to plant, read-out: plant damage rating, Barnyardgrass; for pest or weed control at 250 g/ha: 250 g ai/ha, read-out: Barnyardgrass damage rating (100=total damage to plant; 0=no damage to plant)
Procedure, shortened: (§2)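 Pre-emergence spray, 15.625/62.5/250 g/ha, vehicle acetone:water 50:50 + 0.5% Tween 20, applied 1 d after sowing. Glasshouse 24/16° C, 14 h light, 65% RH, watered twice daily. Visual damage rating at 13 d, 0–100 scale.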

corn (Zea mays) [8] = test: Test G Pre-Emergence Protocol; conditions: Zea mays, pre-emergence, 312 h, evaluated after 13 days; for plant injury at 15.625 g/ha: 15.625 g ai/ha; for plant injury at 15.625 g/ha / plant injury at 250 g/ha: read-out: Corn damage rating (100=total damage to plant; 0=no damage to plant); for plant injury at 62.5 g/ha: 62.5 g ai/ha, 100=total damage to plant, 0=no damage to plant, read-out: plant damage rating, Corn; for plant injury at 250 g/ha: 250 g ai/ha
Procedure, shortened: as §2

[9] = tested on: giant foxtail (Setaria faberi); test: Test G Pre-Emergence Protocol; conditions: Setaria faberi, pre-emergence, 312 h, evaluated after 13 days; for pest or weed control at 15.625 g/ha: 15.625 g ai/ha; for pest or weed control at 15.625 g/ha / pest or weed control at 250 g/ha: read-out: Foxtail, Giant damage rating (100=total damage to plant; 0=no damage to plant); for pest or weed control at 62.5 g/ha: 62.5 g ai/ha, 100=total damage to plant, 0=no damage to plant, read-out: plant damage rating, Foxtail, Giant; for pest or weed control at 250 g/ha: 250 g ai/ha
Procedure, shortened: as §2

[10] = tested on: ivy-leaved morning glory (Ipomoea hederacea); test: Test G Pre-Emergence Protocol; conditions: Ipomoea, pre-emergence, 312 h, evaluated after 13 days; for pest or weed control at 15.625 g/ha: 15.625 g ai/ha, read-out: Morning-glory, Ivy-leaved damage rating (100=total damage to plant; 0=no damage to plant); for pest or weed control at 62.5 g/ha: 62.5 g ai/ha, 100=total damage to plant, 0=no damage to plant, read-out: plant damage rating, Morningglory, Ivy-leaved; for pest or weed control at 250 g/ha: 250 g ai/ha, read-out: Morningglory, Ivy-leaved damage rating (100=total damage to plant; 0=no damage to plant)
Procedure, shortened: as §2

[11] = tested on: redroot pigweed (Amaranthus retroflexus); test: Test G Pre-Emergence Protocol; conditions: Amaranthus retroflexus, pre-emergence, 312 h, evaluated after 13 days; for pest or weed control at 15.625 g/ha: 15.625 g ai/ha; for pest or weed control at 15.625 g/ha / pest or weed control at 250 g/ha: read-out: Pigweed, Redroot damage rating (100=total damage to plant; 0=no damage to plant); for pest or weed control at 62.5 g/ha: 62.5 g ai/ha, 100=total damage to plant, 0=no damage to plant, read-out: plant damage rating, Pigweed, Redroot; for pest or weed control at 250 g/ha: 250 g ai/ha
Procedure, shortened: as §2

[12] = tested on: velvetleaf (Abutilon theophrasti); test: Test G Pre-Emergence Protocol; conditions: Abutilon theophrasti, pre-emergence, 312 h, evaluated after 13 days; for pest or weed control at 15.625 g/ha: 15.625 g ai/ha; for pest or weed control at 15.625 g/ha / pest or weed control at 250 g/ha: read-out: Velvetleaf damage rating (100=total damage to plant; 0=no damage to plant); for pest or weed control at 62.5 g/ha: 62.5 g ai/ha, 100=total damage to plant, 0=no damage to plant, read-out: plant damage rating, Velvetleaf; for pest or weed control at 250 g/ha: 250 g ai/ha
Procedure, shortened: as §2

Compound	pest or weed control at 15.625 g/ha [1]	pest or weed control at 62.5 g/ha [1]	pest or weed control at 250 g/ha [1]	plant injury at 15.625 g/ha (corn (Zea mays) [2])	plant injury at 62.5 g/ha (corn (Zea mays) [2])	plant injury at 250 g/ha (corn (Zea mays) [2])	pest or weed control at 15.625 g/ha [3]	pest or weed control at 62.5 g/ha [3]	pest or weed control at 250 g/ha [3]	pest or weed control at 15.625 g/ha [4]	pest or weed control at 62.5 g/ha [4]	pest or weed control at 250 g/ha [4]	pest or weed control at 15.625 g/ha [5]	pest or weed control at 62.5 g/ha [5]	pest or weed control at 250 g/ha [5]	pest or weed control at 15.625 g/ha [6]	pest or weed control at 62.5 g/ha [6]	pest or weed control at 250 g/ha [6]	pest or weed control at 15.625 g/ha [7]	pest or weed control at 62.5 g/ha [7]	also measured
CN1C[C@@H](c2ccc(C(F)(F)F)cc2)[C@H](C(=O)Nc2cccc(F)c2C#N)C1=O (racemic) [Compound 1637]	20%	70%	70%	0%	0%	10%	60%	80%	80%	0%	20%	30%	40%	70%	70%	0%	10%	30%	20%	30%	pest or weed control at 250 g/ha [7]: 80%; plant injury at 15.625 g/ha (corn (Zea mays) [8]): 0%; plant injury at 62.5 g/ha (corn (Zea mays) [8]): 0%; plant injury at 250 g/ha (corn (Zea mays) [8]): 30%; pest or weed control at 15.625 g/ha [9]: 60%; pest or weed control at 62.5 g/ha [9]: 90%; pest or weed control at 250 g/ha [9]: 90%; pest or weed control at 15.625 g/ha [10]: 0%; pest or weed control at 62.5 g/ha [10]: 0%; pest or weed control at 250 g/ha [10]: 0%; pest or weed control at 15.625 g/ha [11]: 20%; pest or weed control at 62.5 g/ha [11]: 50%; pest or weed control at 250 g/ha [11]: 60%; pest or weed control at 15.625 g/ha [12]: 0%; pest or weed control at 62.5 g/ha [12]: 0%; pest or weed control at 250 g/ha [12]: 0%
Cc1nccc(NC(=O)[C@@H]2C(=O)N(C)C[C@H]2c2ccc(C(F)(F)F)cc2)n1 (racemic) [Compound 1641]	0%	0%	0%	0%	0%	0%	0%	0%	0%	0%	0%	0%	0%	0%	0%	0%	0%	0%	0%	0%	pest or weed control at 250 g/ha [7]: 0%; plant injury at 15.625 g/ha (corn (Zea mays) [8]): 0%; plant injury at 62.5 g/ha (corn (Zea mays) [8]): 0%; plant injury at 250 g/ha (corn (Zea mays) [8]): 0%; pest or weed control at 15.625 g/ha [9]: 0%; pest or weed control at 62.5 g/ha [9]: 0%; pest or weed control at 250 g/ha [9]: 0%; pest or weed control at 15.625 g/ha [10]: 0%; pest or weed control at 62.5 g/ha [10]: 0%; pest or weed control at 250 g/ha [10]: 0%; pest or weed control at 15.625 g/ha [11]: 0%; pest or weed control at 62.5 g/ha [11]: 0%; pest or weed control at 250 g/ha [11]: 0%; pest or weed control at 15.625 g/ha [12]: 0%; pest or weed control at 62.5 g/ha [12]: 0%; pest or weed control at 250 g/ha [12]: 0%
